Twelve molecules from patent US7285701B2, “Cyanobacterial nucleic acid fragments encoding proteins useful for controlling plant traits via nuclear or plastome transformation” (BASF Plant Science GmbH, priority 2001, dated 2007) can be followed below.

Read-outs that look alike come from different tables or passages of the source.

Experiment [1] has as its system 4′-fluoro-6-[(alpha,alpha,alpha,-trifluoro-m-toly)oxy]-picolinamide resistant mutants. The experiment can be described thus: Cross-resistance test of resistant mutants against other PDS inhibitors. Format: cell-based, Synechocystis.
Another experiment relates to Synechocystis PCC 6803. Description: Susceptibility of Synechocystis PCC 6803 to known herbicides (Table 2). Format: cell-based. Here is the method: (§1) To identity a target site gene activity, two types of Bluegreen algae, Synechocystis PCC 6803 (American Type Culture Collection, Rockville, Md.) and Anabaena PCC 7120 (American Type Culture Collection, Rockville, Md.) can be used for the screen. One is grown in microtiter dishes in BG-11 medium supplemented with various concentrations of the test compounds. Inhibition of growth can be monitored by visual inspection after two to three days of culture. Quantitative growth measurements can be taken photometrically starting one day after inoculation.
(§2) Alternatively screens can be performed on agar plates with “lawns” of cyanobacteria and paper discs impregnated with test compounds. In this case, zones of inhibited growth around paper discs can be detected after two or three days.
(§3) To set up the assay, wild type cells of Synechocystis were mixed with equal volumes of 2× top agar and 2× BG-11 and overlaid on top of BG-11 agar plate. Cells normally appear in 3-5 days after plating. This method will yield an even and uniform lawn of cells. Upon solidifying, test compounds are then spotted on Whatman filter paper disc before being placed on agar plates. Four compounds can be tested on a single plate. Using this screening, in an example employing 160 different compounds, predominantly compounds of novel mode of action, have been tested on this microbe, and on average, 25% of the compounds show at least some activity.
A rapid plate based assay for screening lead compounds was developed as follows. First, either one of two types of bluegreen algae, Synechocystis PCC6803 and Anabaen PC 7120 were grown in microtitre dishes containing BG-11 supplemented with various concentrations of 160 different test compounds. Alternatively, screens can be performed on agar plates with lawns of cyanobacteria and paper discs impregnated with test compounds.
(§4) A rapid plate based assay for screening and identifying active compounds is then performed. Wild type cells of Synechocystis are mixed with equal volumes of 2× top agar and 2× BG-11. The mixture is then overlaid on top of a BG-11 agar plate. Cells normally appear 3-5 days after plating. This method will yield an even and uniform lawn of cells.
(§5) After solidification of the agar, test compounds were spotted on Whatman filter paper disc, and then were placed on agar plates. Four different compounds were tested on a single plate. Using this screening method, 160 different compounds were tested, predominantly compounds of novel mode of action. On average, 25% of the compounds show at least some activity.
Cyanobacteria are a particularly useful source of genes for enhancing crop performance due to their similarity, and ancestral connection, to plant chloroplasts. In particular, cyanobacterial genes may be useful for transformation directly into the chloroplast genome due to similarities in genetic elements. Similarities in cyanobacterial genes and proteins to those from chloroplasts can carry over to a shared susceptibility to herbicides.

In another experiment the test system is Anabaena PCC7120. Description: In vivo growth in BG-11 media with commercial herbicides. It counts as cell-based. Particulars: 100 nM, one week of culture in BG-11 media. Here is the method:
(§6) In vivo resistance of cyanobacteria to PURSUIT® imazethapyr and OUST® sulfometuron methyl. As a preliminary matter, Synechocystis PCC6803 and Anabaenia PCC7120 were tested for susceptibility to PURSUIT® imazethapyr and OUST® sulfometuron methyl. AHAS genes which are resistant to these herbicides are excellent candidates for transformation in plant plastomes and nuclear genomes. Such transformants can be used in a weed control strategy using a combination of transgenic herbicide resistant crops and herbicides.
(§7) In vivo testing of Synechocystis PCC6803 and Anabaena PCC7120 was done by culturing the organisms in varying concentrations of the commercial herbicides. […] For relative comparison purposes a concentration of 1 μM PURSUIT® imazethapyr in agar media is lethal to Arabidopsis plants.

The next experiment has as its system Synechocystis PCC6803. The description is as above. Format: cell-based. The settings on record: 100 nM, one week of culture in BG-11 media. As for the experimental part:
as §6, §7

The test system of the next experiment is Synechocystis AHAS. The experiment can be described thus: In vitro AHAS assay. Format: biochemical, Synechocystis PCC6803. The settings on record: 100 nM. As for the experimental part: (§8) AHAS is the target site of both PURSUIT® imazethapyr and OUST® sulfometuron methyl herbicides. To determine if resistance to the herbicides is due to a natural resistance to inhibition of the acetohydroxyacid synthase enzymes from the cyanobacteria, or if it is due to alternative mechanisms (e.g. lack of entry into the cell), the in vitro activity of the AHAS enzyme in the presence of the herbicides was tested.
(§9) AHAS assays were performed with slight modification as described by Singh et. al (Singh B K, Stidham M A, Shaner D L, 1988, Assay for acetohydroxyacid synthase from plants. Anal Biochem 171: 173-179).
(§10) Synechocystis PCC6803 and Anabaena PCC7120 were cultured in 1.5 L of BG-11 media. Cells were collected by centrifuge and stored frozen at −80° C. Frozen cells were thawed and placed in a 30 mL Bead Beater cell disruptor chamber (BioSpec Corp Bartlesville, Okla.). Seven mL of acid washed sand was added. The chamber was filled with 2× ASHA assay buffer, consisting of 100 mM HEPES pH7.0, 200 mM pyruvate, 20 mM MgCl2, 2 mM TPP (Thiamine pyrophosphate) and 100 μM FAD (flavin adenine dinucleotide).
(§11) The Bead Beater cell disruptor was packed in ice and turned on for 10 seconds, followed by cooling for 3 minutes. This cycle was repeated five times. The extract was transferred into a centrifuge tube, and spun in a Beckman SA20 (Beckman, Fullerton, Calif.) rotor for 15 minutes at 17,000 rpms. […]

The next experiment has as its system Anabaena AHAS. The experiment can be described thus: In vitro AHAS assay. It counts as biochemical, Anabaena PCC7120. Particulars: 100 nM. Here is the method: as §8, §9, §10, §11
Experiment [2] deals with E. coli M1262 expressing the cyanobacterial ahas gene. The experiment can be described thus: Growth on minimal media of E. coli M1262 expressing the cyanobacterial ahas gene. It counts as cell-based. The source says: To confirm that these plasmids carry functional AHAS sequences, plasmid DNA from each of the ten rescued colonies was transformed into the E. coli strain M1262. (leuB6, ilv1614, ilvH612, λ^−, relA1, spoT1, ilvB619, ilvG603, ilfG605(am), thi-1) (Genetics Stock Center, Yale University). This strain of E. coli is lacking in AHAS. […] The ahas gene can therefore be used for achieving herbicide tolerance in crops by transformation into the nuclear or plastidic genome.

Experiment [3] deals with wild type Synechocystis PCC6803. The experiment can be described thus: Paper disc assay on BG-11 agar, wild type Synechocystis. It counts as cell-based.
Source text: as §2, §3
Susceptibility of Synechocystis to 4′-fluoro-6-[(alpha,alpha,alpha,-trifluoro-m-toly)oxy]-picolinamide was tested using a paper disc assay in which 4′-fluoro-6-[(alpha,alpha,alpha,-trifluoro-m-toly)oxy]-picolinamide was spotted in a paper disc before being placed on a lawn of cells. In determining susceptibility, the size of the zone of inhibition is indicative of the potency of the compound.
as §4, §5
The resistant phenotype of selected mutant cell lines was further tested in solid medium as well as in suspension cultures. […]

In another experiment the test system is wild type Synechocystis. Description: Dose-response in liquid/suspension culture, wild type Synechocystis. Format: cell-based, Synechocystis PCC6803. Here is the method:
as §1
(§12) These experiments also established a dose-response curve. A lethal concentration for resistant mutant selection was 1-2 μM of 4′-fluoro-6-[(alpha,alpha,alpha,-trifluoro-m-toly)oxy]-picolinamide. Dose-response studies were also performed in 96-sell microtiter plates on wild type and putative 4′-fluoro-6-[(alpha,alpha,alpha,-trifluoro-m-toly)oxy]-picolinamide resistant mutants of Synechocystis. The growth of the culture was measured daily at an optical density of 690 nm.
(§13) For wild type cells (WT), the growth was inhibited at concentrations of 4′-fluoro-6-[(alpha,alpha,alpha,-trifluoro-m-toly)oxy]-picolinamide of <0.25 μM, with an I50 in the sub μM range. By contrast, the I50 values are between 1-2 μM for 5-1/12E, and in the range of 5-10 μM for 7-3/12F and 7-4/12F, respectively.
(§14) Wild type cells were inhibited at concentrations of <0.25 uM 4′-fluoro-6-[(alpha,alpha,alpha,-trifluoro-m-toly)oxy]-picolinamide, with an I50 in the sub μM range. In contrast I50 values are between 1-2 μM for 5-1/12E and 5-1/12F, and between 5-10 μM for 7-3/12F and […]. Thus, because the cell lines with the mutant pds genes are far more resistant than wild type cell lines, there is evidence that the selected cultures contain 4′-fluoro-6-[(alpha,alpha,alpha,-trifluoro-m-toly)oxy]-picolinamide resistance.

In experiment [4] the test system is Synechocystis EMS resistant mutant cell lines. Description: Dose-response in suspension culture, resistant mutant cell lines. Format: cell-based, Synechocystis PCC6803. Particulars: seven days, read-out: I50. Here is the method:
as §12, §13, §14

The mark [5] stands for this setting: wild type cells, suspension culture, seven days.

With `CC(=O)/C(C(=O)c1ccc(Cl)cc1Cl)=C(/N)SCc1ccccc1` [(2E)-2-[amino(benzylsulfanyl)methylene]-1-(2,4-dichlorophenyl)-1,3-butanedione], the “cross-resistance of the resistant mutants” value (“cross-resistance” for short) in [1] is given as “exhibited cross-resistance”.

`N#Cc1cc(Br)c(O)c(Br)c1` [Bromoxynil]: in the experiment with Synechocystis PCC 6803, the “Activity Rating (++ = highest)” value is “+”.

Take `CCNc1nc(Cl)nc(NCC)n1` [Simazine]: the “Activity Rating (++ = highest)” value in the experiment with Synechocystis PCC 6803 is on record as “++”.

As for `CCOC(=O)Nc1cccc(OC(=O)Nc2ccccc2)c1` [Desmedipham], in the experiment with Synechocystis PCC 6803, the “Activity Rating (++ = highest)” value was “++”.

For `COC(=O)c1ccccc1S(=O)(=O)NC(=O)Nc1nc(C)cc(C)n1` [OUST® sulfometuron methyl, sulfometuron methyl], the inhibition of growth result with Anabaena PCC7120 and in the experiment on Synechocystis PCC6803 was “No inhibition of growth” in each case. Also, the “inhibition of AHAS enzyme” value in the experiment with Synechocystis AHAS and in the experiment on Anabaena AHAS was “No significant inhibition” each time. Besides, the “growth on minimal media in the presence of the herbicide” value in [2] was “capable of growing”.

Turning to `O=C(Nc1cccc2c1C(=O)c1cccc(NC(=O)c3cc(C(=O)Nc4cccc5c4C(=O)c4cccc(NC(=O)c6ccccc6)c4C5=O)c(C(=O)Nc4cccc5c4C(=O)c4cccc(NC(=O)c6ccccc6)c4C5=O)cc3C(=O)Nc3cccc4c3C(=O)c3cccc(NC(=O)c5ccccc5)c3C4=O)c1C2=O)c1ccccc1` [1,2,4,5-benzenetetracarboxamide,N,N′,N″,N′″-tetrakis[5-(benzoylamino)-9,10-dihydro-9,10-dioxo-1-anthracenyl]], in [1], the “cross-resistance” value was “exhibited cross-resistance”.

On to `CN(C)C(=O)Nc1ccc(Cl)cc1` [CMU], for which, in the experiment with Synechocystis PCC 6803, the “Activity Rating (++ = highest)” value was “+”.

For `CN(C)C(=O)Nc1ccc(Cl)cc1` [Monuron], in the experiment on Synechocystis PCC 6803, the “Activity Rating (++ = highest)” value was “++”.

As to `CN(C)C(=O)Nc1ccccc1` [Fenuron], the “Activity Rating (++ = highest)” value with Synechocystis PCC 6803 was “++”.

Regarding `Cc1cc(OCC=C(Cl)Cl)nc(Oc2ccnc(C(F)(F)F)c2)c1` [pyridine, 2-[(3,3-dichloro-2-propenyl)oxy]-4-methyl-6-[(2-(trifluoromethyl)-4-pyrodinyl]oxy]], in experiment [1], the “cross-resistance” value is given as “exhibited cross-resistance”.

As to `COC(=O)Nc1cccc(OC(=O)Nc2cccc(C)c2)c1` [Phenmedipham], the “Activity Rating (++ = highest)” value with Synechocystis PCC 6803 was “++”.

As to `O=C(Nc1ccc(F)cc1)c1cccc(Oc2cccc(C(F)(F)F)c2)n1` [4′-fluoro-6-[(alpha,alpha,alpha,-trifluoro-m-toly)oxy]-picolinamide], the “concentrations active against Synechocystis PCC6803” value in experiment [3] (BG-11 solid medium, paper disc assay) lay within 1 to 2 µM. Moreover, in experiment [3] (Synechocystis), the “lethal concentration for resistant mutant selection” value was 1 to 2 µM. For the same molecule, in experiment [3] (paper disc assay, 0.5 nmol), the “growth of wild type Synechocystis” value is “significantly inhibited”. In addition, the “I50 of growth inhibition” value with wild type Synechocystis (liquid cultures) is “lower sub-micromolar range”. In addition, in the experiment on wild type Synechocystis (setting [5]), the I50 result is “sub μM range”. Further, the “concentration at which growth was inhibited” value in the experiment on wild type Synechocystis (setting [5]) is below 0.25 µM. Further, the IC50 was in the range of 1 to 2 µM in [4] (mutant 5-1/12E); 1 to 2 µM in [4] (mutant 5-1/12F); 5 to 10 µM in experiment [4] (mutant 5-4/12F); 5 to 10 µM in experiment [4] (mutant 7-3/12F); 5 to 10 µM in experiment [4] (mutant 7-4/12F).
